Literature values as cited in article PMC12281572.
Values joined by “and” are separate entries in the source; they are usually repeats but may differ in a detail not shown here. Equal entries are not always repeated.

Assay: FTIR, 4-fluorophenol as donor (the pK_BHX database, per the paper)
Details: CCl4; 25 C

Structure (SMILES)	pK_BHX (log10 Kf of the 1:1 H-bond complex with 4-fluorophenol, by FTIR)
c1ccc2c(c1)CCO2	0.21 log units
CCCCCF	-0.06 log units
CC(=O)c1cccc([N+](=O)[O-])c1	0.18 log units
CC(=O)c1ccc(N2CCOCC2)cc1	1.61 log units
Cc1ccc(C#N)cc1	0.88 log units
C=Cn1ccnc1	2.35 log units
c1ccc2cnncc2c1	1.97 log units
CN1CCCCC1	2.11 log units
C(=NCc1ccccc1)c1ccccc1	1.18 log units
CN(C)C(=S)N(C)C	1.35 log units
COC(=O)c1ccccc1	0.89 log units
CC(C)c1cccc(C(C)C)c1N	0.37 log units
CC(C)C(=O)N(C1CCCCC1)C1CCCCC1	2.24 log units
CNC=O	1.96 log units
CCc1ccccn1	1.94 log units
O=[N+]([O-])C=CN1CCCCC1	1.55 log units
CC(=O)c1cccc(C(C)=O)c1	0.86 log units
CN(C)CCCn1c2ccccc2c2ccccc21	1.88 log units
CN(C)C=NS(=O)(=O)c1ccccc1	1.51 log units
CC(C)O	1.06 log units
C(=Nc1ccccc1)c1ccccc1	0.87 log units
CSC(C)(C)C	0.25 log units
CC(C)(C)c1cccc(C(C)(C)C)n1	-0.54 log units
Fc1ccccn1	0.95 log units

Structure (SMILES)	pK_BHX (log10 Kf of the 1:1 H-bond complex with 4-fluorophenol, by FTIR)
Cc1ccc(N(C)C)cc1	0.69 log units
CN1CCN(C)CC1	1.88 log units
CCC(=O)N(C1CCCCC1)C1CCCCC1	2.22 log units
C1CSC1	0.13 log units
CN1C(CC(=O)c2ccccc2)CCCC1CC(O)c1ccccc1 (centres unmarked)	2.11 log units and 1.94 log units
c1cnccn1	0.92 log units
CC(=Nc1ccc(Cl)cc1)Nc1ccc(Cl)cc1	1.07 log units
c1ccsc1	-0.5 log units
CCc1cccnc1	2.01 log units
CN(C=O)c1ccccc1	1.74 log units
CN(C)C=NC(=O)c1ccccc1	2.1 log units
c1ccc(C(c2ccccc2)c2ccccc2)cc1	-0.5 log units
CN(C)C=Nc1ccccc1Br	1.37 log units
CC(C)(C)Br	-0.22 log units
C1CCOCC1	1.23 log units
O=C(Cl)N(c1ccccc1)c1ccccc1	0.75 log units
c1cscn1	1.37 log units
CCCCCCCCP(=O)(CCCCCCCC)CCCCCCCC	3.59 log units
CC(=Nc1ccc(Br)cc1)Nc1ccccc1	1.36 log units
CCCCO	1.02 log units
NCc1ccccc1	1.84 log units
CSC	0.12 log units
CC(=Nc1ccccc1)N(C)c1ccccc1	1.65 log units
CCCSC	0.16 log units

Structure (SMILES)	pK_BHX (log10 Kf of the 1:1 H-bond complex with 4-fluorophenol, by FTIR)
Cc1cccc(C)n1	2.14 log units
COc1ccc(N=C(c2ccccc2)N(C)c2ccccc2)cc1	1.53 log units
COc1ccccc1C(C)=O	1.34 log units
NCc1cc(F)cc(F)c1	1.28 log units
O=C1CCCCO1	1.57 log units
C1OCOCO1	0.02 log units
CSc1ccccc1	-0.32 log units and -0.48 log units
N#CC1CCCC1	0.88 log units
CN(C)C=NC(=S)N(C)C	1.79 log units
O=Cc1ccc(Cl)cc1	0.63 log units
CC(C)(C)C(=O)C12CC3CC(CC(C3)C1)C2	1.08 log units
CSCc1ccccc1	-0.02 log units
C=CSCC	-0.13 log units
CCS	-0.16 log units
CCOC(=O)C=CN(C)C	2.09 log units
COc1ccccc1C#N	1.06 log units
NC1CC1	1.72 log units
ClC1CCCCC1	-0.27 log units
Nc1ncccn1	1.55 log units
CCOC(=O)c1ccc(Br)cc1	0.78 log units
OC12CC3CC(CC(C3)C1)C2	1.27 log units
O=c1c2ccccc2oc2ccccc12	1.36 log units
CC(=O)c1cccc(C)c1	1.1 log units
O=C(C(=O)c1ccccc1)c1ccccc1	0.44 log units

Structure (SMILES)	pK_BHX (log10 Kf of the 1:1 H-bond complex with 4-fluorophenol, by FTIR)
c1ccc(C2CC2)cc1	-0.37 log units
CCN(CC)c1ccc(C(C)=O)cc1	1.82 log units
c1ccc2c(c1)Cc1ccccc1-2	-0.38 log units
CCc1ccncc1	2.07 log units
CCOC(=O)CC	1.08 log units
NCCCCCCN	2.21 log units
CN(C)C=NC(=O)N(C)C	2.92 log units
N#Cc1ccc(C(F)(F)F)cc1	0.54 log units
Fc1nc(F)c(F)c(F)c1F	-0.49 log units
c1ccccc1	-0.49 log units
CC(=O)c1cccc(Cl)c1	0.82 log units
CC(C)SC(C)C	0.3 log units
CC1COC(=O)O1 (centres unmarked)	1.22 log units
Cc1nc2ccccc2o1	1.48 log units
N#Cc1ccccc1C(F)(F)F	0.57 log units
Cc1cc(C)ncn1	1.47 log units
COC=O	0.65 log units
CC(C)C(=O)C(C)C	1.08 log units
CC1=NCCC1	2.59 log units
CS(C)=O	2.54 log units
CCC#CCC	-0.1 log units
CN=C(N(C)C)N(C)C	3.16 log units
CC(C)Cl	-0.3 log units
O=C1CCCCCCCCCC1	1.2 log units

Structure (SMILES)	pK_BHX (log10 Kf of the 1:1 H-bond complex with 4-fluorophenol, by FTIR)
CN(C)Cc1cccc(C(F)(F)F)c1	1.16 log units
OC1CCCCC1	1.14 log units
CN(C)C(=O)N(c1ccccc1)c1ccccc1	2.08 log units
CC(=O)N(c1ccccc1)c1ccccc1	1.94 log units
CC(C)(C)c1ccccc1	-0.32 log units
CN(C)C(=O)C(C)(C)C	2.1 log units
CC(=NC(=S)N(C)C)N(C)C	2.06 log units
COc1cc(C#N)cc(OC)c1	0.78 log units
CN(C)C=Nc1ccc(N(C)C)cc1	2.32 log units
O=S1OCCO1	0.87 log units
CN1CCC(Cl)CC1	1.7 log units
CC1=CCCCC1	-0.74 log units
c1ccc2ncccc2c1	1.89 log units
Clc1ccc(N=C(Nc2ccccc2)c2ccccc2)cc1	1.13 log units
CNC(=O)c1ccccc1	2.03 log units
Cc1ccc(N=CNc2ccc(C)cc2)cc1	2.22 log units
COc1ccc(C(=O)N(C)C)cc1	2.31 log units
O=C(C1CC1)C1CC1	1.36 log units
Cc1ccc(CN=CN(C)C)cc1	2.36 log units
CCN(C)Cc1cccc(F)c1	1.14 log units
